Experimental findings from US6355633B1, “Aryl sulfonic acids and derivatives as FSH antagonists” (American Home Products Corporation, priority 1999, dated 2002) are described below.

Assay [1] relates to FSH-induced changes in ovarian follicular maturation. As to the kind of experiment: Immature Rat Test Procedure (FSH-induced organ wet weight). The assay is classed as in vivo. The settings on record: immature rats, twice daily for three days with half-maximal dose of hFSH; for IC50 (mg/Kg) ovaries: ovarian wet weight; for IC50 (mg/Kg) uterus: uterine wet weight. How it is done:
Immature Rat Test Procedure
In order to assess the ability of compounds to affect FSH-induced changes in ovarian follicular maturation in vivo, immature rats (18 days of age) are treated twice daily for three days with compound in the presence of a half-maximal dose of purified human FSH. Animals are treated via the i.p. or p.o. routes. On the fourth day following treatment, animals are euthanized and the ovaries, uterus and spleen (the spleen is a control tissue that should not respond to FHS stimulation) collected for wet weight determination. In each experiment animals treated with vehicle alone or FSH alone are used as negative and positive controls, respectively.

A further assay addresses T1, FSH receptor (Homo sapiens, UniProt P23945).
T1 sequence (P23945 18-695): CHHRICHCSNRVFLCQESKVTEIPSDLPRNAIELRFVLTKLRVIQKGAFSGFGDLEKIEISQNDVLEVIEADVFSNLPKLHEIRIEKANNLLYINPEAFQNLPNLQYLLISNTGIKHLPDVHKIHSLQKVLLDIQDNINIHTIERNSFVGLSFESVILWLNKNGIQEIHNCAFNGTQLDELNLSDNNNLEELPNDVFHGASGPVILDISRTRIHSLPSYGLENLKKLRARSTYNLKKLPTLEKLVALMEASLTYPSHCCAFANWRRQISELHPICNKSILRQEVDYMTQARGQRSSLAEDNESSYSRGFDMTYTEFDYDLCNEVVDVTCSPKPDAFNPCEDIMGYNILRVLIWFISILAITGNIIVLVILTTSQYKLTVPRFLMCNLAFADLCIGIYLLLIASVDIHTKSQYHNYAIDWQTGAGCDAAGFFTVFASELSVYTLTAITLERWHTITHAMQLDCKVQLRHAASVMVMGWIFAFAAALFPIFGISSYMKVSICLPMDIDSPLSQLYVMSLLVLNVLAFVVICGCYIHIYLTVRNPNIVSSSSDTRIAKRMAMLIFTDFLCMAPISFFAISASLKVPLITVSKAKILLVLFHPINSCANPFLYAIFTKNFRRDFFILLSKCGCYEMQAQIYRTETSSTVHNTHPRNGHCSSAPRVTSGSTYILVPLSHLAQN
As to the kind of experiment: In Vitro Bio-test Procedure of Agonists and Antagonists to the FSH Receptor (cAMP accumulation in CHO-3D2 cells). The assay is classed as cell-based. Also noted: expressed in transfected cells; host or cells: CHO-3D2 cells. Summed up:
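CHO-3D2 cells (30,000/well, plated one day earlier) preincubated 30-45 min, then challenged with compounds in Optimem/0.1% BSA for 30 minutes at 37 deg C; agonist mode at 5 concentrations, antagonist mode against ED20 FSH. cAMP accumulation in medium measured by radioimmunoassay (fmol/mL); ANOVA with Dunnett's or Duncan's test.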
Background: Changes in cAMP serve as a functional read-out for many G protein-coupled receptors.

Setting [2] is: antagonist mode, inhibition of hFSH-induced cAMP accumulation (ED20 of FSH, […]), CHO-3D2 cells.

Like-named read-outs stand apart in the source and are kept apart here.

As usually defined, the IC50 is the point on the concentration scale where inhibition reaches its midpoint. Low readings indicate inhibition by little substance, high ones a need for much substance. For “2,2′-[(E)-1,2-Ethenediyl]bis[5-[[4-(methylthio)-3-(4-morpholinylsulfonyl)benzoyl]amino]benzenesulfonic Acid] [Example 30b]”, the “IC50 (mg/Kg) ovaries” value in assay [1] (ip) came out at 8.1 mg/kg; in assay [1] (po), 23 mg/kg. In addition, the entries for the “IC50 (mg/Kg) uterus” value in assay [1] (ip) and in assay [1] (po) were 1.3 mg/kg and 10 mg/kg, respectively. At FSH receptor (setting [2]), the IC50 worked out at 1300 nM.

Regarding `COCCOCCOc1ccc(C(=O)Nc2ccc(/C=C/c3ccc(NC(=O)c4ccc(OCCOCCOC)c(S(=O)(=O)N5CCOCC5)c4)cc3S(=O)(=O)O)c(S(=O)(=O)O)c2)cc1S(=O)(=O)N1CCOCC1` [Example 30a, 2,2′-[(E)-1,2-Ethenediyl]bis[5-[[4-[2-(2-methoxyethoxy)ethoxy]-3-(4-morpholinylsulfonyl)benzoyl]amino]benzenesulfonic Acid]], the IC50 on FSH receptor came to 1600 nM. This lies in the single-digit micromolar range.

`CS(=O)(=O)c1ccc(C(=O)Nc2ccc(/C=C/c3ccc(NC(=O)c4ccc(S(C)(=O)=O)c([N+](=O)[O-])c4)cc3S(=O)(=O)O)c(S(=O)(=O)O)c2)cc1[N+](=O)[O-]` [Example 30c, 2.2′-[(E)-1,2-Ethenediyl]bis[5-[[(4-methylsulfonyl)-3-(nitro)-benzoyl]amino]benzenesulfonic Acid]] returned an IC50 on FSH receptor (setting [2]) of 3600 nM.

As for `CS(=O)(=O)c1ccc(C(=O)Nc2ccc(/C=C/c3ccc(NC(=O)c4ccc(S(C)(=O)=O)c(S(=O)(=O)N5CCOCC5)c4)cc3S(=O)(=O)O)c(S(=O)(=O)O)c2)cc1S(=O)(=O)N1CCOCC1` [Example 30d, 2,2′-[(E)-1,2-Ethenediyl]bis[5-[[4-(methylsulfonyl)-3-(4-morpholinylsulfonyl)benzoyl]amino]benzenesulfonic Acid]], the IC50 on FSH receptor was 1600 nM.

In turn, `CSc1ccc(C(=O)Nc2ccc(/C=C/c3ccc(NC(=O)c4ccc(S(C)(=O)=O)c([N+](=O)[O-])c4)cc3S(=O)(=O)O)c(S(=O)(=O)O)c2)cc1S(=O)(=O)N1CCOCC1` [Example 30e] yielded a concentration for half-maximal inhibition (IC50) at FSH receptor of 900 nM.

Regarding `COCCNS(=O)(=O)c1cc(C(=O)Nc2ccc(/C=C/c3ccc(NC(=O)c4ccc(S(C)(=O)=O)c([N+](=O)[O-])c4)cc3S(=O)(=O)O)c(S(=O)(=O)O)c2)ccc1OC` [Example 30f], the IC50 at FSH receptor worked out at 3100 nM.

On FSH receptor (setting [2]), `COc1ccc(C(=O)Nc2ccc(/C=C/c3ccc(NC(=O)c4ccc(S(C)(=O)=O)cc4)cc3S(=O)(=O)O)c(S(=O)(=O)O)c2)cc1S(=O)(=O)N1CCOCC1` [Example 30g] yielded an IC50 of 2500 nM.

`COc1ccc(C(=O)Nc2ccc(/C=C/c3ccc(NC(=O)c4ccc(OC)c(S(=O)(=O)N5CCS(=O)(=O)CC5)c4)cc3S(=O)(=O)O)c(S(=O)(=O)O)c2)cc1S(=O)(=O)N1CCS(=O)(=O)CC1` [Example 30k, 2,2′-[(E)-1,2-Ethenediyl]bis[5-[[3-[(1,1-dioxido-4-thiomorpholinyl)sulfonyl]-4-methoxybenzoyl]amino]benzenesulfonic Acid]] yielded an IC50 on FSH receptor of 1500 nM.

At FSH receptor, `COCCNS(=O)(=O)c1cc(C(=O)Nc2ccc(/C=C/c3ccc(NC(=O)c4ccc(OC)c(S(=O)(=O)NCCOC)c4)cc3S(=O)(=O)O)c(S(=O)(=O)O)c2)ccc1OC` [Example 30m, 2,2′-[(E)-1,2-Ethenediyl]bis[5-[[4-methoxy-3-[[(2-methoxyethyl)amino]sulfonyl]benzoyl]amino]benzenesulfonic Acid]] came in with an IC50 of 5800 nM. Against the preceding compound, the IC50 is about 3.9-fold higher.

Regarding `CS(=O)(=O)c1ccc(C(=O)Nc2ccc(/C=C/c3ccc(NC(=O)c4ccc(S(C)(=O)=O)cc4)cc3S(=O)(=O)O)c(S(=O)(=O)O)c2)cc1` [Example 30q, 2,2′-[(E)-1,2-Ethenediyl]bis[5-[[4-(methylsulfonyl)benzoyl]amino]benzenesulfonic Acid]], the IC50 at FSH receptor amounted to 12000 nM.

`O=C(Nc1ccc(/C=C/c2ccc(NC(=O)c3ccc(OC4CCOCC4)c(S(=O)(=O)N4CCOCC4)c3)cc2S(=O)(=O)O)c(S(=O)(=O)O)c1)c1ccc(OC2CCOCC2)c(S(=O)(=O)N2CCOCC2)c1` [Example 30r, 2,2′-[(E)-1,2-Ethenediyl]bis[5-[[3-(4-morpholinylsulfonyl)-4-[(tetrahydro-2H-pyran-4-yl)oxy]benzoyl]amino]benzenesulfonic Acid]] had an IC50 at FSH receptor of 2000 nM. Against the preceding compound, the IC50 is about 6-fold lower.

`COc1ccc(C(=O)Nc2ccc(/C=C/c3ccc(NC(=O)c4ccc(OC)c(S(=O)(=O)N5CCOCC5)c4)cc3S(=O)(=O)O)c(S(=O)(=O)O)c2)cc1S(=O)(=O)N1CCOCC1` [Example 30s, 2,2′-[(E)-1,2-Ethenediyl]bis[5-[[4-methoxy-3-(4-morpholinylsulfonyl)benzoyl]amino]benzenesulfonic Acid]] showed an IC50 on FSH receptor of 4400 nM.

With `COCCOc1ccc(C(=O)Nc2ccc(/C=C/c3ccc(NC(=O)c4ccc(OCCOC)c(S(=O)(=O)N5CCOCC5)c4)cc3S(=O)(=O)O)c(S(=O)(=O)O)c2)cc1S(=O)(=O)N1CCOCC1` [Example 30t, 2,2′-[(E)-1,2-Ethenediyl]bis[5-[[4-(2-methoxyethoxy)-3-(4-morpholinylsulfony)benzoyl]amino]benzenesulfonic Acid]], on FSH receptor, the half-maximal inhibitory concentration (IC50) was found to be 1400 nM.

For `CCS(=O)(=O)c1ccc(C(=O)Nc2ccc(/C=C/c3ccc(NC(=O)c4ccc(S(=O)(=O)CC)cc4)cc3S(=O)(=O)O)c(S(=O)(=O)O)c2)cc1` [Example 32f, 2,2′-[(E)-1,2-Ethenediyl]bis[5-[[4-(ethylsulfonyl)benzoyl]amino]benzenesulfonic Acid]], the IC50 on FSH receptor came out at 4200 nM.

Turning to `COc1ccc(C(=O)Nc2ccc(/C=C/c3ccc(NC(=O)c4ccc(OC)c(S(=O)(=O)N5CCSCC5)c4)cc3S(=O)(=O)O)c(S(=O)(=O)O)c2)cc1S(=O)(=O)N1CCSCC1` [Example 33d, 2,2′-[(E)-1,2-Ethenediyl]bis[5-[[4-methoxy-3-(4-thiomorpholinylsulfonyl)benzoyl]amino]benzenesulfonic Acid]], the IC50 at FSH receptor came out at 2600 nM.

In the case of `COc1ccc(C(=O)Nc2ccc(/C=C/c3ccc(NC(=O)c4ccc(OC)c(S(=O)(=O)N5CCCC5)c4)cc3S(=O)(=O)O)c(S(=O)(=O)O)c2)cc1S(=O)(=O)N1CCCC1` [Example 33e, 2,2′-[(E)-1,2-Ethenediyl]bis[5-[[4-methoxy-3-(1-pyrrolidinylsulfonyl)benzoyl]amino]benzenesulfonic Acid]], the IC50 on FSH receptor was 1500 nM.

For `COc1ccc(C(=O)Nc2ccc(/C=C/c3ccc(NC(=O)c4ccc(OC)c(S(=O)(=O)N5CCN(C(C)=O)CC5)c4)cc3S(=O)(=O)O)c(S(=O)(=O)O)c2)cc1S(=O)(=O)N1CCN(C(C)=O)CC1` [Example 34a, 2,2′-[(E)-1,2-Ethenediyl]bis[5-[[3-[(4-acetyl-1-piperazinyl)sulfonyl]-4-methoxybenzoyl]amino]benzenesulfonic Acid]], the 50% inhibitory concentration (IC50) at FSH receptor turned out to be 3300 nM.

`COc1ccc(C(=O)Nc2ccc(/C=C/c3ccc(NC(=O)c4ccc(OC)c(S(=O)(=O)N5CCN(C=O)CC5)c4)cc3S(=O)(=O)O)c(S(=O)(=O)O)c2)cc1S(=O)(=O)N1CCN(C=O)CC1` [Example 34b, 2,2′-[(E)-1,2-Ethenediyl]bis[5-[[3-[(4-formyl-1-piperazinyl)sulfonyl]-4-methoxybenzoyl]amino]benzenesulfonic Acid]] registered an IC50 at FSH receptor of 1700 nM.

In turn, `COc1ccc(C(=O)Nc2ccc(CCc3ccc(NC(=O)c4ccc(S(C)(=O)=O)cc4)cc3S(=O)(=O)O)c(S(=O)(=O)O)c2)cc1S(=O)(=O)N1CCOCC1` [Example 43a, 5-[[4-Methoxy-3-(4-morpholinylsulfonyl)benzoyl]amino]-2-[2-[4-[[4-(methylsulfonyl)benzoyl]amino]-2-sulfophenyl]ethyl]benzenesulfonic Acid] gave an IC50 at FSH receptor of 8700 nM.
